Measured values taken from US6440437B1, “Wet wipes having skin health benefits” (Kimberly-Clark Worldwide, Inc., priority 2000, dated 2002).

Test system: EpiDerm™ skin model (Epi-200)
Test: EpiDerm skin model: barrier against trypsin and IL-1α pro-inflammatory response
Assay type: cell-based, human
Conditions: 15 microliters formulation 30 min before 10 microliters of 200 μg/ml trypsin; media assayed by ELISA after 6 hours
Experimental: The EpiDerm™ skin model (Epi-200, Mattek Corporation, Ashland, Mass.) was used to assess the ability of the lipid-enriched wet wipe formulations to enhance skin barrier against permeation of trypsin (a skin irritating, fecal enzyme) and prevent a Interleukin-1α (IL-1α) response which is a measure of inflammation.
Test formulations (15 microliters) were added to the surface of the EpiDerm™ skin model and incubated for 30 minutes at 37° C., 5% CO2 prior to dosing with the fecal enzyme, trypsin. The study was conducted using Epi-200 assay media devoid of hydrocortisone and pH indicator that was prepared by the manufacturer. After 30 minutes, the underlying media was removed and replaced with fresh, pre-warmed media followed by application of 10 microliters of 200 μg/ml of trypsin. The skin wells were incubated for 6 hours before the underlying media was removed and stored for further analysis. […] Also, the amount of IL-1α in the media was measured using commercially available ELISA kits (Quantikine™ Human IL-1α Immunoassay, R&D Systems, Minneapolis, Minn.) specific for IL-1α to assess the ability of the formulations to prevent a pro-inflammatory response by the enzyme compared to the no treatment control.

trypsin
Irritation: Pro-inflammatory Response (IL-1α), Average IL-1α: 108.7
